Measurements taken from US9498505B2, “Embelia concinna extract comprising flavonoids in cosmetic and pharmaceutical compositions” (BAYER CONSUMER CARE AG, priority 2012, dated 2016).
Several values for one entry are separate records, joined by “and”; a condition that tells them apart may be missing. Equal entries are not always repeated.

Legend:
human neutrophils [1] = assay: PGE2 release by neutrophils stimulated with opsonised zymosan (ELISA); format: cell-based; conditions: for PGE2: Indomethacin 1 μM
Procedure: (§1) The purpose of this study is the evaluation of the dry Embelia extract on the production of LTB4 (leucotriens B4) and PGE-2 (prostaglandin E-2) in human neutrophils. Venous blood from healthy donors was collected into tubes containing anticoagulant and sedimented with Dextran (Dextran T500). The supernatant was layered on Ficoll-Hypaque (density 1,077) and centrifuged at 400 g for 20 min. The cell pellet was washed in Tyrode (in mM: NaCl 137; KCl 2.6; glucose 5.6; HEPES 4.2; pH 7.4). Contaminating red blood corpuscules were lyzed. The cells were resuspended at 2.106 cells/ml in the Tyrode buffer supplemented with CaCl2 and MgCl2 (1.3 and 1 mM, respectively). Cells (2.106 cells/ml) were incubated at 37° C. in the presence or absence of the products to be tested during 15 min and then stimulated with opsonised zymosan (1 mg/ml) during 10 min. LTB4 assay was performed using a kit ELISA (Thermo Fisher ref. EHL LTB4). The quantity of LTB4 was expressed in pg/ml. PGE2 assay was performed using a kit ELISA (Assay designs ref 900-001 and SPIBIO ref 514010). The quantity of PGE2 was expressed in pg/ml. Data represent the means of values measured in one supernatant (non stimulated cells) or three supernatants (stimulated cells). Each measurement was assessed in duplicate. The means of the data were compared to the control condition (Student's t test-comparison of means—statistical significance at 95% if p<0.05* and at 99% if p<0.01**).

[2] = tested on: human basophils (KU812 cell line); assay: Histamine release from KU812 basophils after CP48/80-induced degranulation (ELISA); format: cell-based
Procedure: FIG. 1: Evaluation by Elisa assay of histamine release after induced basophils degranulation. Protocol: in vitro test on human basophils (KU812 cell line), pre-treatment with Embelia extract for 20 min, stimulation with CP48/80 (10 μg/ml) for 20 min, tested vs cromoglycate (10 nM) as standard reference. Test was performed on liquid Embelia extract according to example 1 to measure its activity on degranulation of human basophils (KU812 cell line) stimulated with CP48/80. Effects on degranulation were evaluated by measuring histamine release after stimulation. Cells were cultured at 37° C., 5% CO2 and culture medium concerned EBSS supplemented with CaCl2 1.8 mM, MgCl2 0.8 mM and Bovine serum albumine (BSA) 0.1%. KU812 cells were then seeded in culture medium containing or not (control) the test compound or the reference (cromoglycate at 10 mM) and cells were pre-incubated for 20 minutes. Cells were then stimulated or not (non-stimulated control) with histamine release inducer CP48/80 at 10 μg/ml and incubated for 20 minutes. All experimental conditions were performed in n=3. At the end of incubation, the quantity of histamine in culture supernatants was measured using an ELISA kit according to the supplier's instructions. The inter-group comparisons were performed by Student's t-test for data management. Results are expressed in % according to the following formulas: [formula] [formula]

[3] = tested on: mast cells (Peritoneal cells from Wistar rat including ~50% mast cells); assay: Histamine release from mast cells after CP48/80-induced degranulation (ELISA); format: cell-based
Procedure: FIG. 2: Evaluation by Elisa assay of histamine release after induced mast cells degranulation. Protocol: in vitro test on mast murine cells, peritoneal cells from Wistar rat including ˜50% mast cells, re-treatment with Embelia extract for 15 min, stimulation with CP48/80 (10 μg/ml) for 20 min, tested vs cromoglycate (10 nM) as standard reference. Test was performed with liquid Embelia extract according to example 1 comprising 7.3% dry matter to measure its activity on degranulation of mast cells (Peritoneal cells from Wistar rat including ˜50% mast cells) stimulated with CP48/80. Effects on degranulation were evaluated by measuring histamine release after stimulation. Cells were cultured at 37° C., 5% CO2 and culture medium concerned EBSS supplemented with CaCl2 1.8 mM, MgCl2 0.8 mM and Bovine serum albumine (BSA) 0.1%. Mast cells were seeded in culture medium containing or not containing (control) the test compound or the reference (cromoglycate at 10 mM) and cells were pre-incubated for 20 minutes. Cells were then stimulated or not stimulated (non-stimulation control) with histamine release inducer CP48/80 at 10 μg/ml and incubated for 20 minutes. All experimental conditions were performed in n=3. At the end of incubation, the quantity of histamine in culture supernatants was measured using an ELISA kit according to the supplier's instructions. The inter-group comparisons were performed by Student's t-test for data management. Results are expressed in % according to the following formulas: [formula]

human neutrophils [4] = assay: LTB4 release by neutrophils stimulated with opsonised zymosan (ELISA); format: cell-based
Procedure: as §1, with “p<0.01**). The percentage of inhibition was calculated as follows: % inhibition=100×[(LTB4 treated with ECC (stimulated)/LTB4 control (stimulated)×100]” for “p<0.01**).”

[5] = tested on: sensory neurons from dorsal root ganglia; assay: Substance P release induced by capsaicin in sensory neurons (ELISA); format: cell-based, newborn Wistar rat
Procedure: (§2) FIG. 3: Evaluation by Elisa assay of substance P release. Protocol: in vitro test on sensory neurons, sensory neurons from dorsal root ganglia of newborn Wistar rat, pre-treatment with Embelia extract for 30 min, stimulation with capsaicin (0.3 μM) for 30 min, tested vs capsazepine (30 μM) as standard reference.
(§3) Test was performed with liquid Embelia extract according to example 1 to measure its activity on release of substance P or CGRP induced by capsaicin in sensory neurons models. Cells were isolated from dorsal root ganglia of newborn Wistar rat. Cells were cultured at 37° C., 5% CO2 and culture medium concerned DMEM-Ham F12 supplemented with N2 complement 1%, antibiotics, L-glutamine 2 mM, nerve growth factor beta 20 ng/ml, neutrophin 5 ng/ml.
(§4) Sensory neurons were then seeded in culture medium containing or not containing (control) the test compound or the reference (capsazepine at 30 μM) and cells were pre-incubated for 30 minutes. Cells were then stimulated or not stimulated (non-stimulation control) with capsaicin (a pungent and irritating agent from hot chili pepper) at 0.3 μM and incubated for 30 minutes. All experimental conditions were performed in n=3. At the end of incubation, the quantity of neuromediators (Substance P or CGRP) in culture supernatants was measured using respective ELISA kit according to the supplier's instructions. The inter-group comparisons were performed by Student's t-test for data management.
(§5) Results are expressed in % according to the following formulas: […]

[6] = tested on: sensory neurons from dorsal root ganglia; assay: CGRP release induced by capsaicin in sensory neurons (ELISA); format: cell-based, newborn Wistar rat
Procedure: as §2, with “FIG. 4:” for “FIG. 3:”, “of CGRP” for “of substance P”, “neurons, Sensory” for “neurons, sensory”
as §3, §4, §5

[7] = tested on: sensory neurons from dorsal root ganglia; assay: Viability (MTT) of sensory neurons; format: cell-based, newborn Wistar rat; conditions: Capsazepine 30 μM
Procedure: A preliminary cytotoxicity test to select doses for further assay was performed with viability test (MMT assay).

[8] = Cromoglycate 10 mM, CP48/80 at 10 μg/ml
[9] = Capsazepine 30 μM, capsaicin (0.3 μM)
[10] = Rattus norvegicus, Neuron, Capsazepine 30 μM, capsaicin (0.3 μM)
[11] = individual values, Capsazepine 30 μM, capsaicin (0.3 μM)

Structure (SMILES): COc1ccc2c(c1)c(CC(=O)O)c(C)n2C(=O)c1ccc(Cl)cc1 [Indomethacin]
- inhibition of PGE2 release (human neutrophils [1]; Indometacin 1 μM, positive control): 51%
- PGE2 (human neutrophils [1]; (NS) not stimulated): 60 pg/mL
- PGE2 (human neutrophils [1]; (S) stimulated with opsonised zymosan): 77.0 pg/mL

Structure (SMILES): O=C(O)c1cc(=O)c2c(OCC(O)COc3cccc4oc(C(=O)O)cc(=O)c34)cccc2o1 [Cromoglycate]
- Inhibition (%) [2, 8]: 42%
- Mean Histamine [2, 8]: 29.5 nM
- Stimulated Control (%) [2, 8]: 71%
- effect on CP48/80-stimulated histamine release ([2]; cromoglycate 10 mM): significantly inhibited this effect
- Histamine ([2]; individual values, Cromoglycate 10 mM, CP48/80 at 10 μg/ml): 32.3 nM and 27.0 nM and 29.0 nM
- Inhibition (%) [3, 8]: 81%
- Mean Histamine [3, 8]: 11.7 µM
- Stimulated Control (%) [3, 8]: 20%
- effect on CP48/80-stimulated histamine release ([3]; cromoglycate 10 mM): significantly inhibited this effect

Structure (SMILES): C[C@H]1[C@H](C)CC[C@]2(C)CC[C@]3(C)C(=CC[C@@H]4[C@@]5(C)CC[C@@H](O)[C@](C)(C(=O)O)[C@@H]5CC[C@]43C)[C@H]12 [Boswellic acid]
- inhibition at 10 µg/mL (human neutrophils [4]; Homo sapiens, Neutrophil, Boswellic acid 10 μg/ml, positive control): 45%

Structure (SMILES): Oc1cc2c(cc1O)CN(C(=S)NCCc1ccc(Cl)cc1)CCC2 [Capsazepine]
- % Stimulated Control (%) [5, 9]: 9%
- Mean Substance P [5, 9]: 23 pg/mL
- inhibition at 30 µM [5, 10]: 99%
- effect on capsaicin-stimulated substance P release ([5]; capsazepine 30 μM): significantly inhibited this effect
- Substance P [5, 11]: 23 pg/mL
- Mean CGRP [6, 9]: 642 pg/mL
- Stimulated Control (%) [6, 9]: 39%
- inhibition at 30 µM [6, 10]: 64%
- effect on capsaicin-stimulated CGRP release ([6]; capsazepine 30 μM): significantly inhibited this effect
- CGRP [6, 11]: 671 pg/mL and 698 pg/mL and 557 pg/mL
- Viability (MTT) % Stimulated Control ([7]; Table 6 (substance P experiment)): 96%
- Viability (MTT) Stimulated Control (%) ([7]; Table 7 (CGRP experiment)): 114%

Structure (SMILES): Cc1ncc([N+](=O)[O-])n1CCO [Metronidazole]
- inhibition at 5 µg/mL (human neutrophils [4]; Homo sapiens, Neutrophil, metronidazole 5 μg/ml, positive control): 100%
- LTB4 (human neutrophils [4]; Metronidazole (10 μg/ml), (S) stimulated with opsonised zymosan): 530 pg/mL
